Data from patent US10093660B2, “Sulfoximine substituted quinazolines for pharmaceutical compositions” (EVOTEC INTERNATIONAL GMBH, priority 2013, dated 2018).

Tests used:
MNK2a = MNK2a (Homo sapiens (Human), UniProt Q9HBH9); assay: MNK2a in vitro kinase assay (Assay 2), ADP-Glo; format: biochemical; details: assay 2; read-out: MNK2 IC50
Text: B. MNK2a In Vitro Kinase Assay (Assay 2)

MNK1a = MNK1a (Homo sapiens (Human), UniProt Q9BUB5); assay: MNK1 in vitro kinase assay (Assay 3), Z'-LYTE; format: biochemical; details: for inhibition at 1 µM: compound concentration of 1 μM, read-out: MNK1 % INH
Chain of MNK1a (Q9BUB5 other isoform, or with tags, fused parts or gaps): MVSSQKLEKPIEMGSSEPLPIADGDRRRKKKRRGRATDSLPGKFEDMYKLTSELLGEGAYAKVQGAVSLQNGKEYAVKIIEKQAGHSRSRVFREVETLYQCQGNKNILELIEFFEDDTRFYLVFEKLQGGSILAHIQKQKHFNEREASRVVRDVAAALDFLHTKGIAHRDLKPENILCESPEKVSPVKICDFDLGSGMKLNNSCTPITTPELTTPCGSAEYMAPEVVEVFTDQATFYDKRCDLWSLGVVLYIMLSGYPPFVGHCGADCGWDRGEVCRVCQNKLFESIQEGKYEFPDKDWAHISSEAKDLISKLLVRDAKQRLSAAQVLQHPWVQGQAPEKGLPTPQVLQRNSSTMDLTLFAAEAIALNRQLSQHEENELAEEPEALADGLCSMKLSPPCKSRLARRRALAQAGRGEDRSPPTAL

Chain of MNK2a (Q9HBH9 whole entry): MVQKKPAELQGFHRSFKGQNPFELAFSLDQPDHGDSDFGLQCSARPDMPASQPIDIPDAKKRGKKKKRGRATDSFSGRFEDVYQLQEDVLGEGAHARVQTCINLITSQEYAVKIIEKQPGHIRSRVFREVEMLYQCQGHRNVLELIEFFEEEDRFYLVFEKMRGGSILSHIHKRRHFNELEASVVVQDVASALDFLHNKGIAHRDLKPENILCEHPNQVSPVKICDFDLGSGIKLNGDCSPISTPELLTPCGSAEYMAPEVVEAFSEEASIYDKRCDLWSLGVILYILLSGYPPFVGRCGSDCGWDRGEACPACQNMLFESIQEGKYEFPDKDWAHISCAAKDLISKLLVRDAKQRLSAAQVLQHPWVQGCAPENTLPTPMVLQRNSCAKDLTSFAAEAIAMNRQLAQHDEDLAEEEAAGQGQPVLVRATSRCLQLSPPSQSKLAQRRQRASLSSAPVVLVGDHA

Row | SMILES | IC50 (MNK2a) | inhibition at 1 µM (MNK1a) | IC50 (MNK1a)
1 | Cc1cc(N=S(C)(C)=O)cc2ncnc(Nc3ccc(F)cc3O[C@@H]3CN(S(C)(=O)=O)C[C@H]3O)c12 [Example 2.11] | 14 nM | 79% | –
2 | CC(=O)N1C[C@@H](O)[C@H](Oc2cc(F)ccc2Nc2ncnc3cc(N=S4(=O)CCCC4)cc(C)c23)C1 [Example 2.13] | 16 nM | 90% | –
3 | CO[C@@H]1CN(C(=O)OCc2ccccc2)C[C@H]1Oc1ncccc1Nc1ncnc2cc(N=S3(=O)CCCC3)cc(C)c12 [Example 2.16] | 82 nM | 55% | –
4 | Cc1cc(N=S2(=O)CCCC2)cc2ncnc(Nc3cccnc3O[C@@H]3CN(C)C[C@H]3O)c12 [Example 2.18] | 49 nM | – | 359 nM
5 | Cc1cc(N=S(C)(C)=O)cc2ncnc(Nc3cccnc3O[C@@H]3CN(C)C[C@H]3O)c12 [Example 2.19] | 132 nM | 45% | –
6 | Cc1cc(N=S(C)(C)=O)cc2ncnc(Nc3cccnc3O[C@@H]3CN(S(C)(=O)=O)C[C@H]3O)c12 [Example 2.20] | 27 nM | 77% | –
7 | CC(=O)N1C[C@@H](O)[C@H](Oc2ncccc2Nc2ncnc3cc(N=S(C)(C)=O)cc(C)c23)C1 [Example 2.21] | 179 nM | 57% | –
8 | CC(=O)N1C[C@@H](O)[C@H](Oc2ncccc2Nc2ncnc3cc(N=S4(=O)CCCC4)cc(C)c23)C1 [Example 2.23] | 23 nM | 75% | –
9 | Cc1cc(N=S(C)(C)=O)cc2ncnc(Nc3cccnc3O[C@H]3COC[C@@H]3O)c12 [Example 2.28] | 11 nM | 85% | –
10 | Cc1cc(N=S2(=O)CCCC2)cc2ncnc(Nc3ccc(F)cc3O[C@H]3COC[C@@H]3O)c12 [Example 2.29] | 2 nM | 104% | 40 nM
11 | Cc1cc(N=S(C)(C)=O)cc2ncnc(Nc3ccc(Cl)nc3O[C@H]3COC[C@@H]3O)c12 [Example 2.40] | 6 nM | 96% | –
12 | Cc1cc(N=S2(=O)CCC2)cc2ncnc(Nc3ccc(Cl)nc3O[C@H]3COC[C@@H]3O)c12 [Example 2.43] | 3 nM | 100% | –
13 | Cc1cc(N=S(C)(C)=O)cc2ncnc(Nc3cccnc3O[C@@H]3COC[C@H]3O)c12 [Example 2.51] | 11 nM | 81% | –
14 | Cc1cc(N=S2(=O)CCC2)cc2ncnc(Nc3ccc(Cl)nc3O[C@@H]3COC[C@H]3O)c12 [Example 2.53] | 4 nM | 83% | –
15 | Cc1cc(N=S2(=O)CCCC2)cc2ncnc(Nc3ccc(Cl)nc3O[C@@H]3COC[C@H]3O)c12 [Example 2.54] | 3 nM | – | 66 nM
16 | Cc1cc(N=S(C)(C)=O)cc2ncnc(Nc3ccc(F)cc3O[C@H]3CN(S(C)(=O)=O)C[C@@H]3O)c12 [Example 2.59] | 4 nM | 99% | –
17 | Cc1cc(N=S2(=O)CCCC2)cc2ncnc(Nc3ccc(F)cc3O[C@H]3CN(S(C)(=O)=O)C[C@@H]3O)c12 [Example 2.60] | 3 nM | – | 37 nM
18 | Cc1cc(N=S(C)(C)=O)cc2ncnc(Nc3ccc(F)cc3O[C@H]3CN(C)C[C@@H]3O)c12 [Example 2.62] | 33 nM | 78% | –
19 | Cc1cc(N=S(C)(=O)c2ccccc2)cc2ncnc(Nc3ccc(F)cc3O[C@H]3COC[C@@H]3O)c12 (stereo partly drawn) [Example 2.75] | 8 nM | – | 95 nM
20 | Cc1cc(N=S(C)(=O)C2CCOCC2)cc2ncnc(Nc3ccc(F)cc3O[C@H]3COC[C@@H]3O)c12 (stereo partly drawn) [Example 2.78] | 11 nM | – | 107 nM
21 | Cc1cc(N=S(C)(=O)c2cccnc2)cc2ncnc(Nc3ccc(F)cc3O[C@H]3COC[C@@H]3O)c12 (stereo partly drawn) [Example 2.81] | 14 nM | 91% | –
22 | Cc1cc(N=S2(=O)CCC(C)C2)cc2ncnc(Nc3ccc(F)cc3O[C@H]3COC[C@@H]3O)c12 (stereo partly drawn) [Example 2.85] | 3 nM | 97% | –
23 | O=S1(=Nc2cc(F)c3c(Nc4ccc(F)cc4O[C@H]4COC[C@@H]4O)ncnc3c2)CCC1 [Example 2.92] | 2 nM | 99% | 44 nM

Continued by falling IC50 (MNK2a), values first:

Row | IC50 (MNK2a) | inhibition at 1 µM (MNK1a) | IC50 (MNK1a) | SMILES
24 | 108 nM | 19% | – | CO[C@@H]1CN(C(=O)OCc2ccccc2)C[C@H]1Oc1cc(F)ccc1Nc1ncnc2cc(N=S(C)(C)=O)cc(C)c12 [Example 2.14]
25 | 91 nM | 63% | – | Cc1cc(N=S(C)(C)=O)cc2ncnc(Nc3ccc(F)cc3O[C@@H]3CN(C)C[C@H]3O)c12 [Example 2.6]
26 | 78 nM | 31% | – | CO[C@@H]1CN(C(=O)OCc2ccccc2)C[C@H]1Oc1cc(F)ccc1Nc1ncnc2cc(N=S3(=O)CCCC3)cc(C)c12 [Example 2.15]
27 | 31 nM | 74% | – | CC(=O)N1C[C@@H](O)[C@H](Oc2cc(F)ccc2Nc2ncnc3cc(N=S(C)(C)=O)cc(C)c23)C1 [Example 2.102]
28 | 21 nM | 18% | – | CO[C@@H]1CN(C(=O)OCc2ccccc2)C[C@H]1Oc1ncccc1Nc1ncnc2cc(N=S(C)(C)=O)cc(C)c12 [Example 2.17]
29 | 17 nM | 85% | – | Cc1cc(N=S2(=O)CCCC2)cc2ncnc(Nc3ccc(F)cc3O[C@@H]3CN(C)C[C@H]3O)c12 [Example 2.5]
30 | 10 nM | 85% | – | Cc1cc(N=S(C)(=O)C(C)(C)C)cc2ncnc(Nc3ccc(F)cc3O[C@H]3COC[C@@H]3O)c12 (stereo partly drawn) [Example 2.79]
31 | 9 nM | 88% | – | Cc1cc(N=[S@@](C)(=O)c2ccccc2)cc2ncnc(Nc3ccc(F)cc3O[C@@H]3COC[C@@H]3O)c12 [Example 2.64]
32 | 8 nM | 96% | – | Cc1c(F)c(N=S(C)(C)=O)cc2ncnc(Nc3ccc(F)cc3O[C@H]3COC[C@@H]3O)c12 [Example 1.33]
33 | 7 nM | 86% | – | Cc1cc(N=S2(=O)CCCC2)cc2ncnc(Nc3cccnc3O[C@@H]3CN(S(C)(=O)=O)C[C@H]3O)c12 [Example 2.22]
34 | 7 nM | 90% | – | Cc1cc(N=S(C)(C)=O)cc2ncnc(Nc3ccc(Cl)nc3O[C@@H]3COC[C@H]3O)c12 [Example 2.48]
35 | 7 nM | 91% | – | Cc1cc(N=S(C)(=O)C(C)C)cc2ncnc(Nc3ccc(F)cc3O[C@H]3COC[C@@H]3O)c12 (stereo partly drawn) [Example 2.74]
36 | 4 nM | 93% | – | CCS(C)(=O)=Nc1cc(C)c2c(Nc3ccc(F)cc3O[C@H]3COC[C@@H]3O)ncnc2c1 (stereo partly drawn) [Example 2.37]
37 | 4 nM | – | 39 nM | Cc1cc(N=S2(=O)CCCC2)cc2ncnc(Nc3ccc(Cl)nc3O[C@H]3COC[C@@H]3O)c12 [Example 2.42]
38 | 4 nM | 96% | – | CC1CCS(=O)(=Nc2cc(F)c3c(Nc4ccc(F)cc4O[C@H]4COC[C@@H]4O)ncnc3c2)C1 (stereo partly drawn) [Example 2.80]
39 | 3 nM | – | 94 nM | Cc1cc(N=S2(=O)CCCC2)cc2ncnc(Nc3ccc(F)cc3O[C@@H]3CN(S(C)(=O)=O)C[C@H]3O)c12 [Example 2.12]
40 | 3 nM | 96% | – | Cc1cc(N=S2(=O)CCCCC2)cc2ncnc(Nc3ccc(F)cc3O[C@H]3COC[C@@H]3O)c12 [Example 2.38]
41 | 3 nM | 91% | – | CS(C)(=O)=Nc1cc(F)c2c(Nc3ccc(F)cc3O[C@H]3COC[C@@H]3O)ncnc2c1 [Example 2.55]
